The results in this text go back to PubChem BioAssay AID212 (DTP/NCI, 2004).

SMILES strings stand for the structures. Several values for one entry are separate records, joined by “and”; a condition that tells them apart may be missing. Identical values can stand only once. Results filed as inconclusive are left out.

The test system of this experiment is BDF1 mice, colon carcinoma 38 sc, T/C %. Put plainly: NCI In Vivo Anticancer Drug Screen. Data for tumor model Colon Carcinoma 38 (subcutaneous) in B6D2F1 (BDF1) mice. The following applies: endpoint: median tumor weight (est.), higher = larger tumour. The essentials: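 Ratio of survival or tumor size, compound-treated animals relative to vehicle controls, in tumor-bearing mice.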

The mark [1] stands for this setting: dose: 25.0 mg/kg/injection, schedule: Q07DX002 (ip), vehicle: Klucel (hydroxypropylcellulose) (HPC).
Where [2] appears, read: dose: 100.0 mg/kg/injection, schedule: Q07DX002 (ip), vehicle: Klucel (hydroxypropylcellulose) (HPC).
[3] abbreviates: dose: 100.0 mg/kg/injection, schedule: Q07DX002 (ip), vehicle: saline with Tween-80.
[4] abbreviates: dose: 12.5 mg/kg/injection, schedule: Q07DX002 (ip), vehicle: saline.
The mark [5] stands for this setting: dose: 25.0 mg/kg/injection, schedule: Q07DX002 (ip), vehicle: saline.
[6] abbreviates: dose: 50.0 mg/kg/injection, schedule: Q07DX002 (ip), vehicle: saline.
[7] abbreviates: dose: 100.0 mg/kg/injection, schedule: Q07DX002 (ip), vehicle: saline.
The mark [8] stands for this setting: dose: 200.0 mg/kg/injection, schedule: Q07DX002 (ip), vehicle: saline with Tween-80.
Setting [9] is: dose: 400.0 mg/kg/injection, schedule: Q07DX002 (ip), vehicle: saline.
[10] abbreviates: dose: 12.5 mg/kg/injection, schedule: Q07DX002 (ip), vehicle: saline with Tween-80.

In the case of `CC1CC(C)CC(C)C(O)/C(C#N)=C/C=C/CC(C2CCCC2C(=O)O)OC(=O)CC(O)C(C)C1` (stereo not given), the T/C (dose: 0.13 mg/kg/injection, schedule: Q07DX003 (ip), vehicle: Klucel (hydroxypropylcellulose) (HPC)) is 84 % of control; the T/C (dose: 0.25 mg/kg/injection, schedule: Q07DX003 (ip), vehicle: Klucel (hydroxypropylcellulose) (HPC)) was 80 % of control; the T/C (dose: 0.5 mg/kg/injection, schedule: Q07DX003 (ip), vehicle: Klucel (hydroxypropylcellulose) (HPC)) is 113 % of control; the T/C (dose: 1.0 mg/kg/injection, schedule: Q07DX002 (ip), vehicle: Klucel (hydroxypropylcellulose) (HPC)) was 92 % of control; the T/C (dose: 1.0 mg/kg/injection, schedule: Q07DX003 (ip), vehicle: Klucel (hydroxypropylcellulose) (HPC)) was 93 % of control; the T/C (dose: 2.0 mg/kg/injection, schedule: Q07DX003 (ip), vehicle: Klucel (hydroxypropylcellulose) (HPC)) is 69 % of control. In addition, the T/C is 106 % of control (dose: 4.0 mg/kg/injection, schedule: Q07DX002 (ip), vehicle: Klucel (hydroxypropylcellulose) (HPC)); 88 % of control (dose: 4.0 mg/kg/injection, schedule: Q07DX003 (ip), vehicle: Klucel (hydroxypropylcellulose) (HPC)); 75 % of control (dose: 8.0 mg/kg/injection, schedule: Q07DX002 (ip), vehicle: Klucel (hydroxypropylcellulose) (HPC)).
Turning to `C[N+](C)(C)c1cc2c(nn1)Nc1ccccc1S2`, the T/C (dose: 6.25 mg/kg/injection, schedule: Q07DX002 (ip), vehicle: Klucel (hydroxypropylcellulose) (HPC)) is 109 % of control; the T/C (dose: 12.5 mg/kg/injection, schedule: Q07DX002 (ip), vehicle: Klucel (hydroxypropylcellulose) (HPC)) was 122 % of control; the T/C under setting [1] was 89 % of control and 90 % of control; the T/C (dose: 50.0 mg/kg/injection, schedule: Q07DX002 (ip), vehicle: Klucel (hydroxypropylcellulose) (HPC)) is 97 % of control; the T/C under setting [2] is 89 % of control.
For `CCOC(=O)CNC(=O)Sc1ccc(C(C)(C)C)cc1`, the T/C was 117 % of control and 97 % of control under setting [1]; 111 % of control and 95 % of control under setting [2]; 78 % of control and 81 % of control (dose: 200.0 mg/kg/injection, schedule: Q07DX002 (ip), vehicle: Klucel (hydroxypropylcellulose) (HPC)); 78 % of control and 102 % of control (dose: 400.0 mg/kg/injection, schedule: Q07DX002 (ip), vehicle: Klucel (hydroxypropylcellulose) (HPC)); 54 % of control (dose: 800.0 mg/kg/injection, schedule: Q07DX002 (ip), vehicle: Klucel (hydroxypropylcellulose) (HPC)).
As to `CC1=C(/C=C/C(C)=C/C=C/C(C)=C/C=O)C(C)(C)CCC1`, the T/C under setting [3] was 116 % of control.
With `Cc1c(N)nc(C(CC(N)=O)NCC(N)C(N)=O)nc1C(=O)NC(C(=O)NC(C)C(O)CC(=O)NC(C(=O)NC(OC1OC(C)C(N)C(O)C1O)C(O)c1nc(-c2nc(C(=O)NCCCC(N)CC(=O)NCCCNCCCCN)cs2)cs1)C(C)O)C(OC1OC(CO)C(O)C(O)C1OC1OC(CO)C(O)C(OC(N)=O)C1O)c1cnc[nH]1` (stereo not given), the T/C runs as follows: (dose: 2.0 mg/kg/injection, schedule: Q07DX002 (ip), vehicle: saline) 56 % of control; (dose: 4.0 mg/kg/injection, schedule: Q07DX002 (ip), vehicle: saline) 43 % of control; (dose: 8.0 mg/kg/injection, schedule: Q07DX002 (ip), vehicle: saline) 25 % of control; (dose: 16.0 mg/kg/injection, schedule: Q07DX002 (ip), vehicle: saline) 19 % of control; (dose: 32.0 mg/kg/injection, schedule: Q07DX002 (ip), vehicle: saline) 6 % of control.
On to `ClCCCN1CCCCC1CCl` (stereo not given), for which, where the note is “dose: 0.78 mg/kg/injection, schedule: Q07DX002 (ip), vehicle: saline”, the T/C is 80 % of control and 86 % of control.
Take `CN(CO)c1nc(N(C)CO)nc(N(C)CO)n1`: the T/C is 95 % of control under setting [4]; 208 % of control (dose: 12.5 mg/kg/injection, schedule: Q07DX003 (ip), vehicle: saline); 87 % of control under setting [5]; 165 % of control (dose: 25.0 mg/kg/injection, schedule: Q07DX003 (ip), vehicle: saline); 117 % of control (dose: 50.0 mg/kg/injection, schedule: Q07DX002 (ip), vehicle: saline with Tween-80); 66 % of control under setting [6]. The T/C (dose: 50.0 mg/kg/injection, schedule: Q07DX003 (ip), vehicle: saline) is 81 % of control; the T/C under setting [3] was 105 % of control; the T/C under setting [7] is 46 % of control; the T/C (dose: 100.0 mg/kg/injection, schedule: Q07DX003 (ip), vehicle: saline) was 46 % of control; the T/C under setting [8] was 55 % of control; the T/C (dose: 200.0 mg/kg/injection, schedule: Q07DX002 (ip), vehicle: saline) is 21 % of control. Also, the T/C is, setting by setting: (dose: 200.0 mg/kg/injection, schedule: Q07DX003 (ip), vehicle: saline) 6 % of control; under setting [9], 4 % of control.
Turning to `COc1ccc(/C=C/C(=O)c2cc(C(=O)O)c(OC)cc2OC)cc1OC`, the T/C runs as follows: under setting [4], 94 % of control and 103 % of control; under setting [5], 88 % of control and 94 % of control; under setting [6], 114 % of control and 124 % of control; under setting [7], 88 % of control and 96 % of control; under setting [9], 93 % of control and 103 % of control.
Take `C=CCNc1nc2c(s1)CCc1cc(OC)c(OC)cc1-2`: the T/C reads like this: under setting [10], 94 % of control; under setting [8], 109 % of control and 111 % of control; (dose: 400.0 mg/kg/injection, schedule: Q07DX002 (ip), vehicle: saline with Tween-80) 73 % of control.
`CCOC(=O)c1ccc(NN=NCCF)cc1`: the T/C reads like this: (dose: 3.12 mg/kg/injection, schedule: Q07DX002 (ip), vehicle: saline with Tween-80) 86 % of control; (dose: 6.25 mg/kg/injection, schedule: Q07DX002 (ip), vehicle: saline with Tween-80) 94 % of control; under setting [10], 70 % of control; (dose: 25.0 mg/kg/injection, schedule: Q07DX002 (ip), vehicle: saline with Tween-80) 89 % of control.
As for `COc1cccc2c1C(=O)c1c(O)c3c(c(O)c1C2=O)C[C@@](O)(C(=O)CO)C[C@@H]3OC1CC(N)CC(C)O1` (stereo not given in full), the T/C (dose: 0.75 mg/kg/injection, schedule: Q07DX002 (ip), vehicle: water) was 93 % of control; the T/C (dose: 1.5 mg/kg/injection, schedule: Q07DX002 (ip), vehicle: water) is 110 % of control; the T/C (dose: 3.0 mg/kg/injection, schedule: Q07DX002 (ip), vehicle: water) is 25 % of control.
Take `Cc1c2ccccc2cc2cccc[n+]12`: the T/C is 87 % of control and 96 % of control (dose: 10.0 mg/kg/injection, schedule: Q07DX002 (ip), vehicle: saline); 77 % of control (dose: 20.0 mg/kg/injection, schedule: Q07DX002 (ip), vehicle: saline); 112 % of control and 94 % of control (dose: 40.0 mg/kg/injection, schedule: Q07DX002 (ip), vehicle: saline); 109 % of control (dose: 80.0 mg/kg/injection, schedule: Q07DX002 (ip), vehicle: saline).
`C/C=C\C1OC1(C)c1cc(=O)c2c(C)cc3c(c2o1)C(=O)c1c(O)c(C2CC(C)(N(C)C)C(OC(C)=O)C(C)O2)cc(C2CC(N(C)C)C(O)C(C)O2)c1C3=O` (stereo not given): the T/C is 119 % of control (dose: 0.38 mg/kg/injection, schedule: Q07DX002 (ip), vehicle: saline + alcohol); 85 % of control (dose: 0.75 mg/kg/injection, schedule: Q07DX002 (ip), vehicle: saline + alcohol); 58 % of control (dose: 3.0 mg/kg/injection, schedule: Q07DX002 (ip), vehicle: saline + alcohol); 53 % of control (dose: 6.0 mg/kg/injection, schedule: Q07DX002 (ip), vehicle: saline + alcohol).
With `O=C(/C=C(\Cl)C(=O)NO)NO`, the T/C runs as follows: under setting [4], 154 % of control; (dose: 12.5 mg/kg/injection, schedule: Q07DX002 (ip), vehicle: suspension in saline) 82 % of control; under setting [5], 159 % of control; (dose: 25.0 mg/kg/injection, schedule: Q07DX002 (ip), vehicle: suspension in saline) 101 % of control; under setting [6], 175 % of control; under setting [7], 119 % of control. Further, the T/C (dose: 100.0 mg/kg/injection, schedule: Q07DX002 (ip), vehicle: suspension in saline) was 94 % of control.
